Laboratory results reported in the supplement of paper PMC10307832.

Compound: COc1cc2ncn(-c3cc(OCc4ccccc4C(F)(F)F)c(C(N)=O)s3)c2cc1OC
Experiment: relative viability (nuclei count vs DMSO), 5 days (fraction); higher = more cells survive
In short: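 Lung cancer cell lines received five library-drug doses (not always all listed) spaced by √10, pinned on vehicle-anchored 1536-well plates after an overnight stay at 37 °C. Five days later, with no medium change, nuclei were Hoechst-stained, imaged at 4× and counted with MetaXpress. Viability is treated-well nuclei relative to vehicle-well nuclei, as a median across plates. Passing plates had control CV below 25% and at least one doubling.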

Cell Line	relative viability (0.05 µM)	relative viability (0.1581 µM)	relative viability (0.5 µM)	relative viability (1.581 µM)	relative viability (5 µM)
NCI-H441	0.846	0.683	0.209	0.217	0.196
NCI-H1793	1.08	1.12	0.568	0.208	0.191
NCI-H23	0.999	0.635	0.348	0.151	0.115
HARA	1.01	0.853	0.8	0.176	0.0967
NCI-H1792	1.11	0.894	0.403	0.16	0.103
NCI-H1703	1.1	0.886	0.52	0.148	0.194
NCI-H2342	1.09	1	0.855	0.623	0.466
CAL-12T	0.827	0.836	0.565	0.249	0.193
NCI-H838	0.971	1.03	0.764	0.176	0.153
NCI-H2085	0.925	1.03	0.759	0.402	0.407
NCI-H1395	0.964	0.925	0.68	0.4	0.314
NCI-H1648	1.04	0.919	0.404	0.241	0.181
NCI-H460	0.986	0.946	0.603	0.0622	0.0847
A549	0.987	1.01	0.399	0.0506	0.054
IA-LM	0.865	0.81	0.109	0.0808	0.0819
EKVX	1.02	0.99	0.77	0.394	0.629
ChaGo-K-1	1.04	0.991	0.948	0.335	0.2
NCI-H1755	0.965	1.02	0.96	0.475	0.371
NCI-H2228	1.01	0.853	0.417	0.166	0.188
NCI-H2087	1.08	0.923	0.628	0.135	0.124
LU99A	0.894	1.08	0.681	0.253	0.203
NCI-H1355	0.974	0.957	0.534	0.197	0.185
NCI-H520	0.946	0.975	0.649	0.212	0.198
NCI-H727	0.991	0.752	0.687	0.395	0.417
NCI-H661	0.979	0.998	0.685	0.348	0.333
NCI-H650	0.913	0.961	0.69	0.33	0.349

Cell Line	relative viability (0.05 µM)	relative viability (0.1581 µM)	relative viability (0.5 µM)	relative viability (1.581 µM)	relative viability (5 µM)
201T	0.994	1.02	0.995	0.377	0.294
PC-14	0.988	0.923	0.661	0.141	0.0894
UMC-11	0.913	0.708	0.329	0.182	0.145
PC-3 [JPC-3]	1.06	0.985	0.636	0.303	0.296
LK-2	1.07	1.03	0.446	0.222	0.211
COR-L23	1.05	1.03	0.692	0.128	0.147
NCI-H1944	1.18	1.03	0.707	0.23	0.141
HCC-78	1.03	0.998	0.749	0.623	0.47
NCI-H2405	1.13	0.769	0.665	0.428	0.351
SW 1573	1.06	0.963	0.547	0.173	0.325
EMC-BAC-2	1.29	1.06	0.805	0.435	0.239
NCI-H1650	0.899	0.951	0.396	0.19	0.147
NCI-H647	0.956	0.881	0.432	0.0899	0.0672
LCLC-97TM1	1.1	1.08	0.665	0.132	0.127
H3255	0.971	0.947	0.866	0.398	0.608
LXF-289	0.977	0.82	0.674	0.132	0.0998
NCI-H596	0.946	1.04	0.756	0.406	0.284
LC-2-ad	0.941	0.918	0.351	0.195	0.227
SK-MES-1	1.02	0.931	0.622	0.194	0.269
A-427	1.05	1	0.886	0.297	0.128
NCI-H322M	0.982	1.11	0.79	0.517	0.325
HCC-366	1.02	0.927	0.429	0.0311	0.0273
NCI-H1975	1.09	0.902	0.643	0.226	0.17
NCI-H1437	1.02	0.898	0.507	0.21	0.18
NCI-H2009	0.909	0.905	0.472	0.232	0.174
NCI-H1651	1.05	0.992	0.77	0.398	0.221

Cell Line	relative viability (0.05 µM)	relative viability (0.1581 µM)	relative viability (0.5 µM)	relative viability (1.581 µM)	relative viability (5 µM)
LCLC-103H	1.02	1.12	0.915	0.442	0.224
NCI-H1666	0.971	0.907	0.74	0.451	0.449
NCI-H1734	1.02	1.02	0.591	0.224	0.174
EPLC-272H	0.615	0.946	0.269	0.124	0.101
NCI-H2023	0.955	1.07	0.566	0.115	0.0893
BEN	1.01	0.965	0.845	0.396	0.383
COR-L 105	0.908	0.903	0.654	0.407	0.272
ABC-1	0.807	0.937	0.736	0.311	0.241
HCC-15	0.944	0.964	0.437	0.157	0.122
NCI-H2170	1.01	0.907	0.473	0.202	0.197
RERF-LC-KJ	0.987	1.07	0.584	0.297	0.471
NCI-H1993	1.1	0.855	0.469	0.605	0.534
NCI-H358	0.908	1.03	0.475	0.166	0.164
NCI-H1563	1.02	0.984	0.888	0.865	0.654
EBC-1	0.924	0.929	0.301	0.19	0.157
NCI-H1915	1.01	0.947	0.784	0.132	0.105
SK-LU-1	1.05	0.871	0.603	0.261	0.233
LOU-NH91	0.97	1.03	0.801	0.455	0.531
NCI-H2347	1.05	0.932	0.848	0.564	0.501
NCI-H2126	1.02	1	0.754	0.329	0.236
HCC-827	1.04	0.986	0.901	0.541	0.341
Calu-6	0.956	0.835	0.268	0.117	0.11
NCI-H3122	1	0.872	0.317	0.145	0.173
HOP-62	1.03	1.01	0.861	0.336	0.161
HCC-44	0.985	1	0.871	0.204	0.211
